Measured values: the OPERA property sets (Mansouri et al. 2018)
Peptide text beside a SMILES is read from it. * marks the point of attachment. Boc = CC(C)(C)OC(=O)*

With `COC(=O)c1ccc(S(I)=C(N(C)C)N(C)C)cc1` (configuration not stated) the logP was -0.74. With `CON(C)C(=O)Nc1cccc(O)c1` the logP was 0.83. `CNC(=O)Oc1cccc2ccccc12` showed a logP of 2.36. For `Cc1ncc([N+](=O)[O-])n1CCNC(=O)OC(C)C`, the logP was 0.88. `CC(C)(S)[C@@H](N)C(=O)O` showed a logP of -1.78. In the case of `CC=CC(C)=O`, the logP is reported as 0.52. Molecule `CC(=O)c1ccc(C(=O)O)cc1` has a logP of 1.61. For `COc1cc(Cl)c(Cl)cc1O`, the logP was 3.26. `O=c1cncc[nH]1` showed a logP of -1.49. In the case of `O=NN(c1ccccc1)c1ccccc1`, the logP is reported as 3.13. With `CCN(CC)CCSC(=NO)c1nc(-c2cccc3ccccc23)no1` the logP was 3.87. In the case of `OCCNc1ccccc1`, the logP is reported as 0.82. In the case of `Fc1ccc(CCl)cc1`, the logP is reported as 2.73. `CCCC(N)Cc1ccccc1` (configuration not stated) gave a logP of 2.79. For `CCC1COC(Cn2cncn2)(c2ccc(Cl)cc2Cl)O1` (configuration not stated), the logP was 3.1. Molecule `OCc1cccnc1` has a logP of -0.02. In the case of `Nc1cc(Cl)c(Cl)cc1N`, the logP is reported as 2. Work on `O=I(=O)c1ccccc1` yielded a logP of -1.33. Work on `Nc1ccc(N)cc1` yielded a logP of -0.3. `CNC(=O)Oc1cccc(C#N)c1` showed a logP of 0.97. Molecule `CC(=O)Nc1ccc(S(I)=C(N(C)C)N(C)C)cc1` (configuration not stated) has a logP of -1.58. `Cc1nn(C)c(OCC(=O)c2ccccc2)c1C(=O)c1ccc(Cl)cc1Cl` gave a logP of 3.69. With `O=[N+]([O-])c1ccc(C=Cc2ncc[nH]2)o1` the logP was 1.32. In the case of `CC(=O)c1cccc(Cl)c1`, the logP is reported as 2.51. `FC(F)(Cl)Cl` showed a logP of 2.16. Molecule `C#CC1(O)CCCCC1` has a logP of 1.73. Work on `CNN` yielded a logP of -1.05. For `O=C1CN=C(c2ccccc2)c2cc(Cl)ccc2N1CC1CC1`, the logP was 3.73. In the case of `CCOP(=S)(OCC)SCCSCC`, the logP is reported as 4.02. Molecule `c1ccc2oncc2c1` has a logP of 1.63. In the case of `c1ccc2nnccc2c1`, the logP is reported as 0.93. `CC(=O)OCC1CCC(n2cnc3c(=O)[nH]cnc32)O1` (configuration not stated) showed a logP of -0.9. In the case of `CC(C)C(NC(=O)C(Cc1ccccc1)NC(=O)OC(C)(C)C)C(=O)O` (stereo not drawn) (Boc-Phe-Val-OH; configuration not given here), the logP is reported as 2.88. In the case of `CCc1ccc(O)cc1`, the logP is reported as 2.58. In the case of `N#CCc1ccco1`, the logP is reported as 0.85. Work on `COc1cc(O)ccc1O` yielded a logP of 0.47. In the case of `CC(C)c1cccc(C(C)C)c1NC(N)=O`, the logP is reported as 2.26. With `Cc1nnc(NS(=O)(=O)c2ccc(N)cc2)s1` the logP was 0.54. For `Nc1ccc(Cl)cc1`, the logP was 1.83. For `CCN(CC)C(=O)C(C)Oc1cccc2ccccc12` (configuration not stated), the logP was 3.36. In the case of `Brc1ccc2cccnc2c1`, the logP is reported as 2.92. `S=C=Nc1ccccc1` gave a logP of 3.28. Work on `CCOP(=S)(OCC)Oc1ccc(SC)cc1` yielded a logP of 4.16. Work on `Cc1ncc([N+](=O)[O-])n1CCS(=O)(=O)C(C)C` yielded a logP of 0.13. Work on `COc1cnc(NS(=O)(=O)c2ccc(N)cc2)nc1` yielded a logP of 0.41. With `CN(C)C(=O)N(C)N=O` the logP was 0.36. `CC(=O)c1ccc(C#N)cc1` gave a logP of 1.22. For `CC(=O)Oc1ccc(C(C)=O)cc1`, the logP was 1.29. For `CC(=O)NCCCOc1cccc(CN2CCCCC2)c1`, the logP was 2.15. With `CCCCCCCc1nn[nH]n1` the logP was 2.01. With `Oc1c(Cl)c(Cl)cc(Cl)c1Cl` the logP was 3.88. `CCNc1nc(NC(C)(C)C)nc(SC)n1` showed a logP of 3.74. Work on `CC(C)CC#N` yielded a logP of 1.07. For `COP(=S)(OC)SCSc1ccc(Cl)cc1`, the logP was 4.82. `COC(=O)c1cnc([N+](=O)[O-])n1C` gave a logP of 0.51. Molecule `O=C(O)COc1ccc2c(c1)CCC2` has a logP of 2.33. `CC(C)CCO[N+](=O)[O-]` showed a logP of 2.84. For `CC(C)(C)C`, the logP was 3.11. In the case of `O=[N+]([O-])c1cccc(-c2ccccc2)c1`, the logP is reported as 3.87. With `Oc1c(F)cc(Cn2cc[nH]c2=S)cc1F` the logP was 1.08. For `BrC(Br)(Br)Br`, the logP was 3.42. Molecule `FC(F)OC(Cl)C(F)(F)F` (configuration not stated) has a logP of 2.06. Molecule `O=C1CCC(N2C(=O)c3ccccc3C2=O)C(=O)N1` (configuration not stated) has a logP of 0.33. Work on `NC(=O)c1cccc(Br)c1` yielded a logP of 1.65. Molecule `N#Cc1ccccc1N` has a logP of 1.4. `C=CCC1(C(C)CC)C(=O)NC(=O)NC1=O` (configuration not stated) gave a logP of 1.47. Molecule `CC(=O)Nc1ccccc1` has a logP of 1.16. `CCN(CC)C(=O)c1cccnc1` gave a logP of 0.33. For `O=c1[nH]ncc2ccccc12`, the logP was 0.75. `CC(C)CCOc1cc(N)ccc1C(=O)O` gave a logP of 2.3. Work on `O=[N+]([O-])c1ccc(OCCN2CCOCC2)cc1` yielded a logP of 1.54. `c1ccc(Sc2cccnc2)cc1` gave a logP of 3.15. Molecule `CC(=O)N[C@@H](Cc1ccc(O)cc1)C(=O)N[C@@H](Cc1ccccc1)C(N)=O` (Ac-Tyr-Phe-NH2) has a logP of 0.54. For `CNC(=O)Oc1cc(Cl)ccc1Cl`, the logP was 2.44. Molecule `CCc1ccccc1CC` has a logP of 3.72. Molecule `NS(=O)(=O)c1ccc2c(c1)S(=O)(=O)NCN2` has a logP of -0.52. With `CCCCC1CC(C(=O)NC(C(C)Cl)C2OC(SC)C(O)C(O)C2O)N(CC)C1` (configuration not stated) the logP was 3.21. Work on `C(=Cc1ccccn1)c1ccccn1` yielded a logP of 2.11. With `COc1ccccc1-c1nc(N)nc(N)n1` the logP was 0.58. `Cc1cc(N)ncn1` gave a logP of 0.19. `CC(=O)c1ccc2cccccc1-2` showed a logP of 2.87. With `NS(=O)(=O)c1cc2c(cc1Cl)NC(Cc1ccccc1)NS2(=O)=O` (configuration not stated) the logP was 0.93. For `CC(=O)NCC(=O)N[C@@H](Cc1ccccc1)C(N)=O` (Ac-Gly-Phe-NH2), the logP was -0.56. For `CCC(=O)OC1(C(=O)CBr)C(C)CC2C3CCC4=CC(=O)C=CC4(C)C3(F)C(=O)CC21C` (configuration not stated), the logP was 3.55. Molecule `O=C(O)Cc1ccc(C(F)(F)F)cc1` has a logP of 2.45. `C[C@]12CC[C@H]3[C@@H](CCC4=CC(=O)CC[C@@]43C)[C@@H]1CC[C@@H]2C(=O)CO` gave a logP of 2.88. Work on `CN1CCC=C1c1cccnc1` yielded a logP of 1.13. Work on `NC(Cc1ccccc1)C(=O)OCn1ncc2c(=O)[nH]cnc21` (configuration not stated) yielded a logP of 0.4. `CC(=O)Nc1ccc(Br)cc1` gave a logP of 2.29. In the case of `NNc1ccccc1`, the logP is reported as 1.25. Work on `CNCCNC` yielded a logP of -0.62. In the case of `COc1ccc(OC)c(Cc2cnc3nc(N)nc(N)c3c2C)c1`, the logP is reported as 2.13. In the case of `Fc1cccc(CCl)c1`, the logP is reported as 2.77. With `CCCCCCCCC1(c2ccncc2)CCC(=O)NC1=O` (configuration not stated) the logP was 4.04. For `OCc1ccc2cccnc2c1`, the logP was 1.29. Work on `CC1(C)CCC(C)(C)O1` yielded a logP of 2.06. With `CN=Cc1ccccc1` the logP was 1.64. For `O=C(O)COc1cccc(C(=O)O)c1`, the logP was 1.11. Molecule `O=C(NCC(O)CO)c1c(I)c(C(=O)NCC(O)CO)c(I)c(N(CCO)C(=O)CO)c1I` (configuration not stated) has a logP of -2.98. In the case of `CC=CC=CC` (mixture of isomers), the logP is reported as 2.8. In the case of `O=C(O)c1ccc([N+](=O)[O-])cc1Cl`, the logP is reported as 2.03. Work on `CC1CN(N=O)CC(C)O1` (configuration not stated) yielded a logP of 0.32. For `O=C(NCC(O)CO)c1c(I)c(N(CCO)C(=O)CO)c(I)c(N(CCO)C(=O)CO)c1I` (configuration not stated), the logP was -2.55. In the case of `COc1cccc(C=C(C(N)=O)C(N)=O)c1`, the logP is reported as 0.01. Work on `Clc1ccccc1-c1cccc(Cl)c1Cl` yielded a logP of 5.31. In the case of `CN(C)CCCCc1cccnc1`, the logP is reported as 1.49. `CCCC(=O)OC` gave a logP of 1.29. In the case of `Nc1ccc(C(=O)Oc2cccc(F)c2)c(O)c1`, the logP is reported as 3.42. Molecule `O=[N+]([O-])c1ccc(C=Cc2nccs2)o1` has a logP of 1.97. `O=C(NC(CO)C(O)c1ccc([N+](=O)[O-])cc1)C(Br)(Br)Br` (configuration not stated) gave a logP of 2.17. `CCOCCOCC` gave a logP of 0.66. Molecule `O=CNc1cccc([N+](=O)[O-])c1` has a logP of 1.4. Work on `Oc1ccc(Cl)c(Cl)c1` yielded a logP of 3.33. `Cc1nnc2n1-c1sc(Br)cc1C(c1ccccc1Cl)=NC2` showed a logP of 2.79. Molecule `CCCCCCCCOc1cccc(NC(=O)OCCN2CCCCC2)c1` has a logP of 5.82. Work on `CC1(c2ccncc2)CCC(=O)NC1=O` (configuration not stated) yielded a logP of 0.07. With `O=C(NC(=O)c1ccccc1O)c1ccccc1O` the logP was 1.92.
